Measurements taken from patent US20240390434A1, “PROBIOTIC ENHANCERS AND USES THEREOF” (Blis Technologies Limited, priority 2021, published 2024).
Like-named read-outs stand apart in the source and are kept apart here.

What was measured:
[1] = tested on: ENTR indicator strains; test: Dose response deferred antagonism assay, producer M18: average over indicators; format: cell-based
[2] = tested on: salA; test: qPCR relative gene expression in K12 grown on CABCa agar; format: cell-based, S. salivarius K12
Description: (§1) Method: CABCa agar plates were prepared either with or without 2.5% w/w raffinose, 0.5% w/w galactose, combined 2.5% w/w raffinose and 0.5% w/w galactose, 0.5% w/w glucose or 2.5% w/w glucose by the addition of 0.5% (w/v) calcium carbonate to solid CAB agar in bottles and then melted by autoclaving at 110° C. for 10 mins. Once cooled, filter sterilised solutions of the saccharides or distilled water were added and mixed and then 20 ml pipetted into petri dishes.
(§2) A S. salivarius K12 raw ingredient suspension was prepared in PBS containing approx. 1×10^8cfu/ml. […] of this suspension was spread evenly onto control and test agar plates. Plates were incubated at 37° C. with 5% CO2 for approx, 19 hrs.
(§3) Bacterial growth from each plate was collected using a sterile cotton swab and resuspended into 1 ml PBS in a screw capped tube. The bacterial cells were then pelleted by centrifugation at 13,000 rpm for 1 minute at 4° C. The supernatant was removed, and the cell pellet was resuspended in 1 ml of TRIzol reagent. The bacterial cell suspension was transferred into a 2 ml screw-capped tube containing 0.1 mm Zirconia/silicon beads. These tubes were then vortexed for 5 minutes at the highest speed to bead beat the bacterial cells to lyse them. The tubes were placed on ice for 1 minute and then re-bead beated again on the vortex for 5 minutes. The tubes were then frozen at −20° C.
(§4) The cDNA samples from K12 raw ingredient grown on the CABCa control plates and CABCa supplemented with the various saccharides were then analysed by qPCR for the levels of gene expression of the following genes: salA, salB, salQ and ureC.
(§5) 10 μl qPCR reactions were prepared containing 2 μl of cDNA, 5 μl SYBR green master mix, 0.5 μl forward primer, 0.5 μl reverse primer and nuclease free water up to 10 μl. The dilution of cDNA in each qPCR was optimised with each primer set.
(§6) qPCR method consisted of the following cycles: Hold Stage: 2 mins at 50° C. followed by 10 mins at 95° C.; PCR Stage: 15 secs at 95° C. followed by 1 min at 60° C.; Melt Curve Stage: 15 secs at 95° C. followed by 1 min at 60° C. followed by 15 secs at 95° C.
(§7) To analyse the relative expression levels the 2^−ΔΔCt method was used to determine the relative fold gene expression level comparing the different sugars to a CABCa plate control. The reference gene used for this analysis was gyrA.

[3] = tested on: salQ; test: as above; format: cell-based, S. salivarius K12
Description: as §1, §2, §3, §4, §5, §6, §7

[4] = tested on: ureC; test: as above; format: cell-based, S. salivarius K12
Description: as §1, §2, §3, §4, §5, §6, §7

[5] = tested on: salB; format: cell-based, S. salivarius K12; conditions: K12
Description: A S. salivarius K12 raw ingredient suspension was prepared in PBS containing approx. 1×10^8cfu/ml. 100p of this suspension was spread evenly onto control and test agar plates. Plates were incubated at 37° C. with 5% CO2 for approx, 19 hrs.
Bacterial growth from each plate was collected using a sterile cotton swab and resuspended into 1 ml PBS in a screw capped tube. The bacterial cells were then pelleted by centrifugation at 13,000 rpm for 1 minute at 4° C. The supernatant was removed, and the cell pellet was resuspended in 1 ml of TRIzol reagent. The bacterial cell suspension was transferred into a 2 ml screw-capped tube containing 0.1 mm Zirconia/silicon beads. […]
The cDNA samples from K12 raw ingredient grown on the CABCa control plates and CABCa supplemented with the various saccharides were then analysed by qPCR for the levels of gene expression of the following genes: salA, salB, salQ and ureC. […]

[6] = tested on: S. pyogenes strains or other pathogens; test: Inhibitory activity of K12 grown in M17 broth with saccharides; format: cell-based; conditions: saccharide 0.83% or 2.5% w/v, vs control
[7] = tested on: bacterial indicator strains; test: Split plate inhibitory activity of K12 in infant formula or whole milk powder (overall); format: cell-based; conditions: galactose 0.5% w/w or raffinose 2.5% w/w added
Description: The following method was used to measure the inhibitory effect of S. salivarius K12 in the context of the powder formulations. Exactly 40 mL of 50° C. molten CAB agar containing 0.5% calcium carbonate (CABCa) was poured in agar plates (120×120 mm). Once the agar was set upon cooling, it was split in the middle and half of the agar gel was removed. The other half was left on the plate as Blank agar marked as side “A”. Approximately, 0.8 g of each combination (DDJ powder with (1) galactose, (2) raffinose or (3) combination of raffinose and galactose) was mixed with 1 mL of sterile distilled water and vortexed to produce a homogeneous suspension. 100 μl of the suspension was reserved for spreading on the surface of agar (producer side B). The remaining suspension was then mixed with 20 mL of molten CABCa agar and the mixture was poured into the empty half of the agar plate to form producer side “B”. The 100 μL of the reserved suspension was spread over the surface on side B and the plates were incubated for 18 h, 37° C., 5% CO2 in air. […] The pH of the producer side was measured and adjusted to 6.5-7.5 by soaking into the agar a solution of 0.5 M sodium carbonate pH 11. […] The zone of inhibition of each indicator strain was measured (in mm) using a ruler. Results were also read using a macroscope to establish presence of small colonies or complete inhibition zones. […]

| SMILES | Average ZOI change ([1]; 1.5% raffinose) [mm] | increase in gene expression of salA relative to no sugar control ([2]; 2.5% w/w sugar in CABCa agar) [fold] | salQ upregulated relative to a no sugar control ([3]; 2.5% w/w sugar in CABCa agar) [fold] | upregulation in urease (ureC) expression ([4]; 2.5% w/w sugar in CABCa agar) [fold] | increase in gene expression of salB relative to no sugar control ([5]; 2.5% w/w sugar in CABCa agar) [fold] | inhibitory activity of K12 grown in presence of saccharide [6] | inhibitory activity of K12 in infant formula compared to the control [7] | Average ZOI change ([1]; 1.5% galactose) [mm] | increase in gene expression of salA relative to no sugar control ([2]; 0.5% w/w sugar in CABCa agar) [fold] | salQ upregulated relative to a no sugar control ([3]; 0.5% w/w sugar in CABCa agar) [fold] | upregulation in urease (ureC) expression ([4]; 0.5% w/w sugar in CABCa agar) [fold] | increase in gene expression of salB relative to no sugar control ([5]; 0.5% w/w sugar in CABCa agar) [fold] |
| --- | --- | --- | --- | --- | --- | --- | --- | --- | --- | --- | --- | --- |
| OC[C@H]1O[C@H](OC[C@H]2O[C@H](O[C@]3(CO)O[C@H](CO)[C@@H](O)[C@@H]3O)[C@H](O)[C@@H](O)[C@@H]2O)[C@H](O)[C@@H](O)[C@H]1O [Raffinose, D-(+) Raffinose pentahydrate] | 22.16 | ~5000 | 93 | 234 | 241 | greater inhibitory activity | reduction in inhibitory activity |  |  |  |  |  |
| O=C[C@H](O)[C@@H](O)[C@@H](O)[C@H](O)CO [Galactose, D-galactose] |  |  |  |  |  | greater inhibitory activity | reduction in inhibitory activity | 11.5 | ~12000 | 205 | 224 | 641 |
